Experiments:
[1] = test system: Rhyzopertha dominica; assay: Insecticidal activity against Rhyzopertha dominica after 24 hr; assay type: functional
[2] = test system: Musca domestica; assay: Insecticidal activity against Musca domestica (house fly) after 24 hr; assay type: functional

SMILES	LC50 [1] [µM]	LC50 [2] [µM]
C=CC(C#N)OC (stereo unspecified)	9.06	4.22
C=CC(O)C#N (stereo unspecified)	4.45	0.67
CC(O)(C#N)CF (stereo unspecified)	3.2	0.87
C=CC(C#N)OC(C)=O (stereo unspecified) [1-CYANOALLYL ACETATE]	2.96	2.08
C=CC(C#N)OC(=O)C(C)(C)C (stereo unspecified) [1-CYANOALLYL PIVALATE]	14.4	8.19
C=CC(C#N)OC(=O)CC (stereo unspecified) [1-CYANOALLYL PROPIONATE]	5.03	4.74
N#CC(O)C1CC1 (stereo unspecified) [CYCLOPROPYLCARBOXALDEHYDE]	4.12	1.54
CC(O)(C#N)C1CC1 (stereo unspecified) [CYCLOPROPYLMETHYLKETONE CYANOHYDRIN]	3.6	1.35
CC=C(Cl)Cl [DICHLOROPROPENE]	49.3	8.11
COP(=O)(OC)OC=C(Cl)Cl [DICHLORVOS]	1.31	0.05
CC(C)(O)C#N [DIMETHYLKETONE CYANOHYDRIN]	4.7	0.82
CCC(C)(O)C#N (stereo unspecified) [METHYLETHYL KETONE CYANOHYDRIN]	4.14	0.91
C=CC(C)(O)C#N (stereo unspecified) [METHYLVINYL KETONE CYANOHYDRIN]	9.47	2.27

— ChEMBL document CHEMBL3046119, “QSAR evaluation of cyanohydrins' fumigation toxicity to house fly (Musca domestica) and lesser grain borer (Rhyzopertha dominica)” (2002)
